Values of other authors, collected in patent US20090098202A1, “Extended Release Formulation” (BOEHRINGER INGELHEIM INTERNATIONAL GMBH, priority 2006, published 2009).
Where a name gives a salt, the structure may show the parent alone.

Tests used:
[1] = in the elderly
[2] = not given; remark: listed apart in the source

Row | stability in solution (in solution, light) | stability in the solid state (solid state) | elimination half-life (t1/2[h]) [1] [h] | solubility in buffer media ([2]; between pH 2 and pH 7.4) | Water solubility ([2]; water) | SMILES
1 | light sensitive | very stable | 12 | – | – | CCCN[C@H]1CCc2nc(N)sc2C1 [Pramipexole, (S)-2-Amino-4,5,6,7-tetrahydro-6-(propylamino)benzothiazole]
2 | – | – | – | above 10 mg/ml | more than 20 mg/ml | CCCN[C@H]1CCc2nc(N)sc2C1 [Pramipexole dihydrochloride monohydrate, pramipexole dihydrochloride monohydrate]
